According to patent US7803992B2, “Methods and compositions for expressing an herbicide-tolerant polynucleotide” (Pioneer Hi-Bred International, Inc., priority 2005, dated 2010):

Assays:
[1] = tested on: parent elite stiff stalk inbred corn; test: Postemergence herbicide application in greenhouse: fresh shoot weight and visual injury; type: in vivo
[2] = tested on: STS ® soybeans; test: Postemergence herbicide treatment of soybeans in greenhouse, visual injury; type: in vivo, soybean
From the text: When possible, containers were thinned to two uniform plants.

[3] = tested on: Non-glyphosate resistant Conyza (Welgevallen-paraquat resistant); test: Control of hairy fleabane by glyphosate, metsulfuron-methyl and two additives; type: in vivo, Conyza bonariensis; settings: glyphosate on its own; 10-15 leaf stage
Procedure: This example included the same treatments as used in Example 11, except the treatments were carried out on a glyphosate sensitive biotype of Kleinskraalhans (Conyza bonariensis). […] In this example, however, ammonium sulfate-based adjuvant (ADD-UP®) preformed better than bispyribac-sodium (VELOCITY®) with the mixture.
• Biotype: Non-glyphosate resistant Conyza (Welgevallen-paraquat resistant) • Growth Stage: 10-15 leaf stage • Condtions: Cool and sunny • Volume rate: 200 L ha^−1 • glyphosate (ROUNDUP): 360 g a.i. L^−1

[4] = tested on: GAT-HRA soybeans; test: Postemergence herbicide treatment of soybeans in greenhouse, visual injury; type: in vivo, soybean; settings: postemergence, glyphosate 8960, tribenuron-methyl 35, rimsulfuron 35 g/ha
Procedure: (§1) Young regenerated transgenic plants were sprayed with 1× glyphosate (1× rate of glyphosate is 1120 g/ha of glyphosate isopropylamine) to cull segregants. Four replications were performed for each treatment. Plants were then treated with various herbicides, including glyphosate and ALS-inhibitor herbicides.
(§2) Six soybean seeds from each variety to be assayed were planted 1 cm deep in 5.5 (13.97 cm) inch square plastic container of a synthetic growth medium. […] When possible, containers were thinned to two uniform plants. Non-transgenic lines were thinned to two uniform plants per container.
(§3) Results are expressed below in Table 11 as the mean of four replications.

[5] = tested on: Wild Type soybeans (Jack); test: as above; type: in vivo, soybean; settings: postemergence, glyphosate 8960, tribenuron-methyl 35, rimsulfuron 35 g/ha
Procedure: as §1, §2, §3

[6] = tested on: Heterozygous GAT-HRA corn; test: Postemergence herbicide application in greenhouse: fresh shoot weight and visual injury; type: in vivo
[7] = tested on: non-transformed GS3 embryos; test: Glyphosate kill curve on culture media; type: cell-based, maize; settings: about 40 days culture
Procedure: A glyphosate kill curve was established by testing non-transformed embryos response on media with different levels of glyphosate. GS3 embryos were isolated from an immature ear and placed onto media containing glyphosate at 0.0, 0.5, 1.0, and 2.0 mM. After about 40 days culture, the response of the embryos were observed and recorded. Similarly, infected GS3 embryos with the GAT construct were placed onto media containing glyphosate at 0.0, 0.5, 1.0, and 2.0 mM. After about 40 days culture, the response of the infected embryos were observed and recorded (FIG. 7).

[8] = tested on: Untransformed Coker 312 cotton; test: Greenhouse over the top herbicide spray of cotton; type: in vivo, Gossypium hirsutum; settings: glyphosate 1.5 lb ae/acre, 2 weeks after application; rimsulfuron 16 g active ingredient/hectare without glyphosate
From the text: (§4) Transformed cotton plants were rooted and then transferred to soil for further growth. Plants were then subjected to herbicide spray treatments in a greenhouse. […] Untransformed Coker 312 control plants were dead 2 weeks after glyphosate application. […] Plants transformed with both GAT and HRA were further subjected to an “over the top” application of the sulfonylurea herbicide rimsulfuron at a rate of 16 g active ingredient/hectare. […] In further experiments 32 g ai/ha rimsulfuron were applied to the cotton.

[9] = tested on: GAT-HRA transgenic cotton plants; test: Greenhouse over the top herbicide spray of cotton; type: in vivo, Gossypium hirsutum; settings: glyphosate 1.5 lb acid equivalent per acre at 4-6 leaf stage; 14 days after application
From the text: as §4

[10] = Zea mays, post-emergence, […], read-out: % Visual Injury

SMILES: O=C(O)CNCP(=O)(O)O [Glyphosate, N-phosphonomethylglycine]
- pest or weed control at 200 g/ha [1, 10]: 100%
- Fresh Weight ([1]; postemergence, 200 g/ha (glyphosate 3472 g ae/ha, glufosinate ammonium 1870 g/ha), weighed 2 weeks after treatment, mean of four replications, untreated 76.4 g): 1.0 g
- % Visual Injury ([2]; STS ® line 25, glyphosate 8960, tribenuron-methyl 35, rimsulfuron 35 g/ha): 100%
- % Visual Injury ([2]; STS ® line 46, glyphosate 8960, tribenuron-methyl 35, rimsulfuron 35 g/ha): 100%
- % Visual Injury ([2]; STS ®, mean, glyphosate 8960, tribenuron-methyl 35, rimsulfuron 35 g/ha): 100%
- plants killed [3]: 1 out of 16
- plants killed, percentage in brackets [3]: 12%
- % Visual Injury ([4]; event 59, mean): 38%
- % Visual Injury ([4]; event 59 line 21): 40%
- % Visual Injury ([4]; event 59 line 28): 37%
- % Visual Injury ([4]; event 60, mean): 15%
- % Visual Injury ([4]; event 60 line 07): 19%
- % Visual Injury ([4]; event 60 line 11): 11%
- % Visual Injury ([4]; event 60 line 22): 11%
- % Visual Injury ([4]; event 60 line 35): 9%
- % Visual Injury ([4]; event 60 line 41): 13%
- % Visual Injury ([4]; event 60 line 46): 20%
- % Visual Injury ([4]; event 60 line 70): 9%
- % Visual Injury ([4]; event 60 line 75): 14%
- % Visual Injury ([4]; event 60 line 77): 19%
- % Visual Injury ([4]; event 60 line 79): 18%
- % Visual Injury ([4]; event 60 line 82): 20%
- % Visual Injury ([4]; event 60 line 84): 22%
- % Visual Injury ([4]; event 61, mean): 20%
- % Visual Injury ([4]; event 61 line 02): 10%
- % Visual Injury ([4]; event 61 line 02B): 10%
- % Visual Injury ([4]; event 61 line 05): 11%
- % Visual Injury ([4]; event 61 line 14): 10%
- % Visual Injury ([4]; event 61 line 18): 10%
- % Visual Injury ([4]; event 61 line 24): 60%
- % Visual Injury ([4]; event 61 line 33): 84%
- % Visual Injury ([4]; event 61 line 34): 23%
- % Visual Injury ([4]; event 61 line 47): 15%
- % Visual Injury ([4]; event 61 line 49): 9%
- % Visual Injury ([4]; event 61 line 51): 10%
- % Visual Injury ([4]; event 61 line 60): 16%
- % Visual Injury ([4]; event 61 line 62): 6%
- % Visual Injury ([4]; event 61 line 99): 10%
- % Visual Injury ([4]; event 64, mean): 14%
- % Visual Injury ([4]; event 64 line 41): 20%
- % Visual Injury ([4]; event 64 line 47): 10%
- % Visual Injury ([5]; Wild Type line 82): 100%
- % Visual Injury ([5]; Wild Type line Jack): 100%
- % Visual Injury ([5]; Wild Type, mean): 100%
- pest or weed control at 200 g/ha [6, 10]: 10%
- Fresh Weight ([6]; postemergence, 200 g/ha (glyphosate 3472 g ae/ha, glufosinate ammonium 1870 g/ha), weighed 2 weeks after treatment, mean of four replications, untreated 98.8 g): 97.4 g
- callus growth of embryos ([7]; media containing 1.0 and 2.0 mM glyphosate): very little callus growth
- embryos showing callus initiation ([7]; medium with 0.5 mM glyphosate): about half
- damage to untransformed control plants [8]: dead
- transgenic plants showing no deleterious symptoms [9]: approximately 50%
